Experimental data from US10647719B2, “Bicyclic compounds as dual ATX/CA inhibitors” (Hoffmann-La Roche Inc., priority 2015, dated 2020).
Where two headings read alike, the source gives them in different places.

What was measured:
human ATX = human ATX (Homo sapiens (Human), UniProt Q13822); experiment: Human ATX enzyme inhibition assay (fluorescence quenching, MR121 substrate); type: biochemical
Experimental: Human ATX Enzyme Inhibition Assay
ATX inhibition was measured by a fluorescence quenching assay using a specifically labeled substrate analogue (MR121 substrate). To obtain this MR121 substrate, BOC and TBS protected 6-amino-hexanoic acid (R)-3-({2-[3-(2-{2-[2-(2-amino-ethoxy)-ethoxy]-ethoxy}-ethoxy)-propionylamino]-ethoxy}-hydroxy-phosphoryloxy)-2-hydroxy-propyl ester (Ferguson et al., Org Lett 2006, 8 (10), 2023) was labeled with MR121 fluorophore (CAS 185308-24-1, 1-(3-carboxypropyl)-11-ethyl-1,2,3,4,8,9,10,11-octahydro-dipyrido[3,2-b:2′,3′-i]phenoxazin-13-ium) on the free amine of the ethanolamine side and then, after deprotection, subsequently with tryptophan on the side of the aminohexanoic acid.
(§1) Assay working solutions were made as follows:
Assay buffer (50 mM Tris-HCl, 140 mM NaCl, 5 mM KCl, 1 mM CaCl2, 1 mM MgCl2, 0.01% Triton-X-100, pH 8.0;
ATX solution: ATX (human His-tagged) stock solution (1.08 mg/mL in 20 mM bicine, pH 8.5, 0.15 M NaCl, 10% glycerol, 0.3% CHAPS, 0.02% NaN3), diluted to 1.4-2.5× final concentration in assay buffer;
MR121 substrate solution: MR121 substrate stock solution (800 μM MR121 substrate in DMSO), diluted to 2-5× final concentration in assay buffer.
Test compounds (10 mM stock in DMSO, 8 μL) were obtained in 384 well sample plates (Corning Costar #3655) and diluted with 8 μL DMSO. Row-wise serial dilutions were made by transferring 8 μL cpd solution to the next row up to row O. The compound and control solutions were mixed five times and 2 μL were transferred to 384 well assay plates (Corning Costar #3702). Then, 15 μL of 41.7 nM ATX solution was added (30 nM final concentration), mixed five times and then incubated for 15 minutes at 30° C. 10 μL of MR121 substrate solution was added (1 μM final concentration), mixed 30 times and then incubated for 15 minutes at 30° C.

[1] = biological target: Human carbonic anhydrase II (hCA-II) (Homo sapiens (Human), UniProt P00918); experiment: Human carbonic anhydrase-II inhibition assay (absorbance, 4-nitrophenyl acetate substrate); type: biochemical
Experimental: Human Carbonic Anhydrase-II Inhibition Assay
Human carbonic anhydrase II (hCA-II) inhibition was measured by an absorbance method using 4-nitrophenyl acetate (4-NPA) as its substrate. 4-NPA can be catalyzed by active hCA II via a zinc-hydroxide mechanism. The nitrophenolate in the products can be ionized to generate a bright yellow anion with high absorbance at 348 to 400 nm, as reported in the literature (Armstrong et al., J. Biol. Chem. 1966, 241, 5137-5149). OD340 nm was chosen for detecting hCA II substrate conversion.
as §1
Assay buffer: 50 mM MOPS, 33 mM Na2SO4, 1 mM EDTA, 0.5 mg/ml BSA, pH 7.5;
Enzyme solution: hCA-II (human, full length) stock solution (1.0 mg/mL in 20 mM HEPES, 50 mM NaCl, pH 7.4), diluted to 2133× final concentration in assay buffer;
4-NPA substrate solution: 4-NPA substrate stock solution (250 mM in DMSO, stored at −20° C.), diluted to 50× final concentration in deionized water.
Test compounds (10 mM stock in DMSO, 100 μL) were obtained in […] sample plates (Corning Costar #3655) and diluted to 0.5 mM. Column-wise serial dilutions were made by transferring 20 μL compound solutions to the next column, from column 3 up to 22. After this, 1.2 μL were transferred to 384 well assay plates (Corning Costar #3701). Then 30 μL of 16 nM hCA II solution was added (8 nM final concentration), mixed five times. 30 μL of 4-NPA substrate solution was added (2.5 mM final concentration), mixed five times. Absorbance at 340 nm was then measured immediately as time zero. The assay plates were incubated at room temperature for 1 hour and then measured as time 1 hour (Perkin Elmer EnVision 2103; Filter: Photometric 340; Light intensity 60%; Number of flashes: 10). IC50 values and Ki values were calculated from these readouts.

[2] = human His-tagged ATX 30 nM, MR121 substrate 1 μM, 30° C., read-out: ATX IC50
[3] = hCA II 8 nM, 4-NPA 2.5 mM, absorbance 340 nm, room temperature 1 hour, read-out: CA-II IC50

Row | Compound | IC50 (human ATX) | IC50 [1] | IC50 (human ATX; [2]) | IC50 [1, 3]
1 | CN1CCC(COc2cc(C(=O)N3CC4=C(C3)CN(C(=O)c3ccc(S(N)(=O)=O)c(F)c3F)C4)cc(C3CC3)n2)CC1 [Example 1.34, 4-[5-[2-cyclopropyl-6-[(1-methylpiperidin-4-yl)methoxy]pyridine-4-carbonyl]-1,3,4,6-tetrahydropyrrolo[3,4-c]pyrrole-2-carbonyl]-2,3-difluorobenzenesulfonamide] | 12 nM | 1 nM | – | –
2 | CC(C)(C)C(=O)Nc1cc(C#N)c(Cl)cc1COC(=O)N1CC2=C(C1)CN(C(=O)c1ccc(S(N)(=O)=O)cn1)C2 [Example 2.00, [5-Chloro-4-cyano-2-(2,2-dimethylpropanoylamino)phenyl]methyl 2-(5-sulfamoylpyridine-2-carbonyl)-1,3,4,6-tetrahydropyrrolo[3,4-c]pyrrole-5-carboxylate] | 1 nM | 24 nM | – | –
3 | NS(=O)(=O)c1ccc(C(=O)N2CCC3=C(CCN(C(=O)OCc4ccc(OC(F)(F)F)cc4)C3)C2)c(F)c1 [Example 2.01, [4-(trifluoromethoxy)phenyl]methyl 6-(2-fluoro-4-sulfamoylbenzoyl)-1,3,4,5,7,8-hexahydro-2,6-naphthyridine-2-carboxylate] | 14 nM | 18 nM | – | –
4 | NS(=O)(=O)c1ccc(C(=O)N2CC3=C(CN(C(=O)OCc4ccc(OC(F)(F)F)cc4)C3)C2)nc1 [Example 2.02, [4-(trifluoromethoxy)phenyl]methyl 2-(5-sulfamoylpyridine-2-carbonyl)-1,3,4,6-tetrahydropyrrolo[3,4-c]pyrrole-5-carboxylate] | 3 nM | 8 nM | – | –
5 | NS(=O)(=O)c1ccc(C(=O)N2CC3=C(CN(C(=O)OCc4ccc(OC(F)(F)F)cc4)C3)C2)c(F)c1 [Example 2.03, [4-(trifluoromethoxy)phenyl]methyl 2-(2-fluoro-4-sulfamoylbenzoyl)-1,3,4,6-tetrahydropyrrolo[3,4-c]pyrrole-5-carboxylate] | 2 nM | 6 nM | – | –
6 | Cc1nnn(Cc2cc(Cl)cnc2COC(=O)N2CC3=C(C2)CN(C(=O)c2ccc(S(N)(=O)=O)cc2F)C3)n1 [Example 2.04, [5-chloro-3-[(5-methyltetrazol-2-yl)methyl]pyridin-2-yl]methyl 2-(2-fluoro-4-sulfamoylbenzoyl)-1,3,4,6-tetrahydropyrrolo[3,4-c]pyrrole-5-carboxylate] | 12 nM | 1.9 nM | – | –
7 | NS(=O)(=O)c1ccc(C(=O)N2CC3=C(CN(C(=O)/C=C/c4ccc(OC(F)(F)F)cc4)C3)C2)c(F)c1 [Example 3.00, 3-Fluoro-4-[2-[(E)-3-[4-(trifluoromethoxy)phenyl]prop-2-enoyl]-1,3,4,6-tetrahydropyrrolo[3,4-c]pyrrole-5-carbonyl]benzenesulfonamide] | – | – | 5 nM | 9 nM
8 | NS(=O)(=O)c1ccc(C(=O)N2CC3=C(CN(C(=O)CCc4ccc(OC(F)(F)F)cc4)C3)C2)nc1 [Example 3.01, 6-[2-[3-[4-(trifluoromethoxy)phenyl]propanoyl]-1,3,4,6-tetrahydropyrrolo[3,4-c]pyrrole-5-carbonyl]pyridine-3-sulfonamide] | 5 nM | 12 nM | – | –
9 | NS(=O)(=O)c1ccc(C(=O)N2CC3=C(CN(C(=O)CCc4ccc(OC(F)(F)F)cc4)C3)C2)c(F)c1 [Example 3.02, 3-fluoro-4-[2-[3-[4-(trifluoromethoxy)phenyl]propanoyl]-1,3,4,6-tetrahydropyrrolo[3,4-c]pyrrole-5-carbonyl]benzenesulfonamide] | 6 nM | 5 nM | – | –
10 | NS(=O)(=O)c1ccc(C(=O)N2CC3=C(CN(C(=O)/C=C/c4ccc(OC(F)(F)F)cc4)C3)C2)nc1 [Example 3.03, 6-[2-[(E)-3-[4-(trifluoromethoxy)phenyl]prop-2-enoyl]-1,3,4,6-tetrahydropyrrolo[3,4-c]pyrrole-5-carbonyl]pyridine-3-sulfonamide] | 4 nM | 17 nM | – | –
11 | NS(=O)(=O)c1ccc(C(=O)N2CC3=C(CN(C(=O)COc4ccc(OC(F)(F)F)cc4)C3)C2)nc1 [Example 3.04, 6-[2-[2-[4-(trifluoromethoxy)phenoxy]acetyl]-1,3,4,6-tetrahydropyrrolo[3,4-c]pyrrole-5-carbonyl]pyridine-3-sulfonamide] | 7 nM | 17 nM | – | –
12 | NS(=O)(=O)c1ccc(C(=O)N2CC3=C(CN(C(=O)COc4ccc(OC(F)(F)F)cc4)C3)C2)c(F)c1 [Example 3.05, 3-fluoro-4-[2-[2-[4-(trifluoromethoxy)phenoxy]acetyl]-1,3,4,6-tetrahydropyrrolo[3,4-c]pyrrole-5-carbonyl]benzenesulfonamide] | 4 nM | 9 nM | – | –
13 | Cc1nnn(Cc2cc(C#N)ccc2CCC(=O)N2CC3=C(C2)CN(C(=O)c2ccc(S(N)(=O)=O)cc2F)C3)n1 [Example 3.06, 4-[2-[3-[4-cyano-2-[(5-methyltetrazol-2-yl)methyl]phenyl]propanoyl]-1,3,4,6-tetrahydropyrrolo[3,4-c]pyrrole-5-carbonyl]-3-fluorobenzenesulfonamide] | 2 nM | 16 nM | – | –
14 | Cc1nnn(Cc2cc(Cl)ccc2CCC(=O)N2CC3=C(C2)CN(C(=O)c2ccc(S(N)(=O)=O)cc2F)C3)n1 [Example 3.07, 4-[2-[3-[4-chloro-2-[(5-methyltetrazol-2-yl)methyl]phenyl]propanoyl]-1,3,4,6-tetrahydropyrrolo[3,4-c]pyrrole-5-carbonyl]-3-fluorobenzenesulfonamide] | 4 nM | 5 nM | – | –
15 | Cc1cnn(Cc2cc(C(F)(F)F)ccc2CCC(=O)N2CC3=C(C2)CN(C(=O)c2ccc(S(N)(=O)=O)cc2F)C3)n1 [Example 3.08, 3-fluoro-4-[2-[3-[2-[(4-methyltriazol-2-yl)methyl]-4-(trifluoromethyl)phenyl]propanoyl]-1,3,4,6-tetrahydropyrrolo[3,4-c]pyrrole-5-carbonyl]benzenesulfonamide] | 1 nM | 6 nM | – | –
16 | Cc1cn(Cc2cc(C(F)(F)F)ccc2CCC(=O)N2CC3=C(C2)CN(C(=O)c2ccc(S(N)(=O)=O)cc2F)C3)nn1 [Example 3.09, 3-fluoro-4-[2-[3-[2-[(4-methyltriazol-1-yl)methyl]-4-(trifluoromethyl)phenyl]propanoyl]-1,3,4,6-tetrahydropyrrolo[3,4-c]pyrrole-5-carbonyl]benzenesulfonamide] | 1 nM | 11 nM | – | –
17 | Cc1nnn(Cc2cc(C(F)(F)F)cnc2CCC(=O)N2CC3=C(C2)CN(C(=O)c2ccc(S(N)(=O)=O)cc2F)C3)n1 [Example 3.10, 3-fluoro-4-[2-[3-[3-[(5-methyltetrazol-2-yl)methyl]-5-(trifluoromethyl)pyridin-2-yl]propanoyl]-1,3,4,6-tetrahydropyrrolo[3,4-c]pyrrole-5-carbonyl]benzenesulfonamide] | 2 nM | 5 nM | – | –
18 | Cc1nnn(Cc2cc(C(F)(F)F)ccc2CCC(=O)N2CC3=C(C2)CN(C(=O)c2ncc(S(N)(=O)=O)cc2F)C3)n1 [Example 4.00, 5-fluoro-6-[2-[3-[2-[(5-methyltetrazol-2-yl)methyl]-4-(trifluoromethyl)phenyl]propanoyl]-1,3,4,6-tetrahydropyrrolo[3,4-c]pyrrole-5-carbonyl]pyridine-3-sulfonamide] | – | – | 10 nM | 3.8 nM
